Reference: patent publication US20180333382A1, “PHARMACEUTICAL COMPOSITIONS COMPRISING DGLA AND USE OF SAME” (DS Biopharma Limited, priority 2017, published 2018)
Where two headings read alike, the source gives them in different places.

Key:
[1] = Phase one study part 2: multiple dose (28 days) plasma PK of free and total DGLA; assay type: in vivo, human; settings: for Tmax / half-life: human, plasma, oral; for half-life: read-out: t1/2, median, free DGLA, baseline-corrected plasma (converted); for free DGLA Peak Trough Fluctuation (PTF), mean: steady state Day 28 (0-24 hours)
Protocol: Multiple dose part two of the study comprised two cohorts (Cohorts five and six) of eight subjects each, who were administered multiple doses of study drug in the fasted state for 28 days. Subjects in Cohorts five and six received DS107G at 2000 or 4000 mg, respectively, or matching placebo once daily for 28 days. Cohort six was started after Cohort five's safety data were evaluated by the SMC. No interim analysis was planned. […]
In Part two of the study (Cohorts five and six), subjects were administered study drug (500-mg DS107G capsules or matching placebo capsules) once daily in the fasted state for 28 days. Subjects in Cohort five received study drug first and, if they tolerated the 2000-mg daily dose for the first 14 days, subjects in Cohort six were started on the 4000-mg daily dose for 28 days.
PK parameter was computed after correcting the dosed DGLA concentrations with baseline DGLA concentrations.

[2] = Phase one study part 2: free and total DGLA in skin blister fluid; assay type: in vivo, human
Text: The PK of DGLA in human skin following multiple doses of DS107G capsule given once daily for 28 days to healthy subjects.

[3] = 4000 mg once daily, Day 28, 0 to 24 hours
[4] = 4000 mg once daily, Day 28, 0 to 168 hours
[5] = 4000 mg once daily, Day 28: 0 to 24 hours

With `CCCCC/C=C\C/C=C\C/C=C\CCCCCCC(=O)O` [DS107G, Dihomo gamma linolenic acid] the “AUC0-24/Dose, mean, total DGLA, baseline-corrected plasma” value [1, 3] was 465.14 h/kL, the “AUC0-inf, mean, free DGLA, baseline-corrected plasma” value [1, 3] was 22926.3 ng·h/mL and the “AUC0-inf/Dose, mean, free DGLA, baseline-corrected plasma” value [1, 3] was 5.73 h/kL. For the same compound, the “AUC0-inf/Dose, mean, total DGLA, baseline-corrected plasma” value [1, 3] was 1194.91 h/kL, the “CL/F, mean, free DGLA, baseline-corrected plasma” value [1, 3] was 0.1865 kL/h and the “Cmax, mean, free DGLA, baseline-corrected plasma” value [1, 3] was 2873.2 ng/mL. For the same compound, the “Cmax/Dose, mean, free DGLA, baseline-corrected plasma” value [1, 3] was 0.718 kL⁻¹, the “Cmax/Dose, mean, total DGLA, baseline-corrected plasma” value [1, 3] was 22.717 kL⁻¹ and the “λz, mean, free DGLA, baseline-corrected plasma” value [1, 3] was 0.0596 h⁻¹. For the same compound, the “λz, mean, total DGLA, baseline-corrected plasma” value [1, 3] was 0.0471 h⁻¹, the “AUC0-24, mean, free DGLA, baseline-corrected plasma” value [1, 4] was 16155.2 ng·h/mL and the “AUC0-24/Dose, mean, free DGLA, baseline-corrected plasma” value [1, 4] was 4.04 h/kL. For the same compound, the “AUC0-24/Dose, mean, total DGLA, baseline-corrected plasma” value [1, 4] was 465.14 h/kL, the “AUC0-inf, mean, free DGLA, baseline-corrected plasma” value [1, 4] was 43184.3 ng·h/mL and the “AUC0-inf/Dose, mean, free DGLA, baseline-corrected plasma” value [1, 4] was 10.80 h/kL. For the same compound, the “AUC0-inf/Dose, mean, total DGLA, baseline-corrected plasma” value [1, 4] was 1575.98 h/kL, the “CL/F, mean, free DGLA, baseline-corrected plasma” value [1, 4] was 0.1266 kL/h and the “Cmax, mean, free DGLA, baseline-corrected plasma” value [1, 4] was 2873.2 ng/mL. The “Cmax/Dose, mean, free DGLA, baseline-corrected plasma” value [1, 4] was 0.718 kL⁻¹, the “Cmax/Dose, mean, total DGLA, baseline-corrected plasma” value [1, 4] was 22.717 kL⁻¹ and the “λz, mean, free DGLA, baseline-corrected plasma” value [1, 4] was 0.0404 h⁻¹. For the same compound, the “λz, mean, total DGLA, baseline-corrected plasma” value [1, 4] was 0.0194 h⁻¹, the “% PTF (peak trough fluctuation), mean, free DGLA, steady-state baseline-corrected plasma” value [1, 5] was 431.97% and the “% PTF (peak trough fluctuation), mean, total DGLA, steady-state baseline-corrected plasma” value [1, 5] was 44.90%. For the same compound, the “AR(AUC) accumulation ratio, mean, free DGLA, steady-state baseline-corrected plasma” value [1, 5] was 1.561, the “AR(AUC) accumulation ratio, mean, total DGLA, steady-state baseline-corrected plasma” value [1, 5] was 4.163 and the “AR(Cmax) accumulation ratio, mean, free DGLA, steady-state baseline-corrected plasma” value [1, 5] was 1.385. For the same compound, the “AR(Cmax) accumulation ratio, mean, total DGLA, steady-state baseline-corrected plasma” value [1, 5] was 3.440, the “CLss/F, mean, free DGLA, steady-state baseline-corrected plasma” value [1, 5] was 0.2858 kL/h and the “CLss/F, mean, total DGLA, steady-state baseline-corrected plasma” value [1, 5] was 0.0025 kL/h. For the same compound, the “Cavg, mean, free DGLA, steady-state baseline-corrected plasma” value [1, 5] was 673.1 ng/mL, the “Cavg, mean, total DGLA, steady-state baseline-corrected plasma” value [1, 5] was 77.5239 µg/mL and the “Cmin, mean, free DGLA, steady-state baseline-corrected plasma” value [1, 5] was 147.0 ng/mL. The “Cmin, mean, total DGLA, steady-state baseline-corrected plasma” value [1, 5] was 59.2167 µg/mL, the “Vzss/F, mean, free DGLA, steady-state baseline-corrected plasma” value [1, 5] was 5.7563 kL and the “Vzss/F, mean, total DGLA, steady-state baseline-corrected plasma” value [1, 5] was 0.1047 kL. For the same compound, the “tmin, median, free DGLA, steady-state baseline-corrected plasma” value [1, 5] was 8.00 h, the “tmin, median, total DGLA, steady-state baseline-corrected plasma” value [1, 5] was 2.00 h and the “time to reach steady-state plasma concentrations, free and total DGLA” value ([1]; 2000 and 4000 mg daily) was ~14 days. The “free DGLA mean baseline-corrected AUC0-24, 4000 mg vs 2000 mg dose” value ([1]; Day 1) was ~2.5 fold, the “free DGLA mean baseline-corrected Cmax, 4000 mg vs 2000 mg dose” value ([1]; Day 1) was ~3 fold and the “total DGLA mean baseline-corrected AUC0-24, 4000 mg vs 2000 mg dose” value ([1]; Day 1) was ~1.5 fold. For the same compound, the “total DGLA mean baseline-corrected Cmax, 4000 mg vs 2000 mg dose” value ([1]; Day 1) was ~1.5 fold, the “free DGLA mean baseline-corrected AUC0-24, 4000 mg vs 2000 mg dose” value ([1]; Day 28) was ~1.7 fold and the “free DGLA mean baseline-corrected Cmax, 4000 mg vs 2000 mg dose” value ([1]; Day 28) was ~1.4 fold. The “total DGLA mean baseline-corrected AUC0-24, 4000 mg vs 2000 mg dose” value ([1]; Day 28) was ~1.4 fold, the “total DGLA mean baseline-corrected Cmax, 4000 mg vs 2000 mg dose” value ([1]; Day 28) was ~1.2 fold and the “time of peak mean concentration of free DGLA after dosing” value ([1]; Days 1 and 28, 2000 and 4000 mg daily) was “about 4 hours”. For the same compound, the Tmax ([1]; both sexes, both dose cohorts, Day 1 and Day 28, read-out: free DGLA median tmax) was 4 to 5 h, the half-life ([1]; 2000 mg, 2000 mg once daily, Day 1, 0 to 24 hours) was 283 min and the Tmax ([1]; 2000 mg, 2000 mg once daily, Day 1, 0 to 24 hours, read-out: tmax, median, free DGLA, baseline-corrected plasma) was 4 h. It also gave a half-life ([1]; 2000 mg, 2000 mg once daily, Day 28, 0 to 24 hours) of 842 min, a Tmax ([1]; 2000 mg, 2000 mg once daily, Day 28, 0 to 24 hours, read-out: tmax, median, free DGLA, baseline-corrected plasma) of 4 h and a half-life ([1]; 2000 mg, 2000 mg once daily, Day 28, 0 to 168 hours) of 3820 min. It also gave a Tmax ([1]; 2000 mg, 2000 mg once daily, Day 28, 0 to 168 hours, read-out: tmax, median, free DGLA, baseline-corrected plasma) of 4 h, a half-life ([1]; 4000 mg, 4000 mg once daily, Day 1, 0 to 24 hours) of 355 min and a Tmax ([1]; 4000 mg, 4000 mg once daily, Day 1, 0 to 24 hours, read-out: tmax, median, free DGLA, baseline-corrected plasma) of 5 h. For the same compound, the half-life ([1]; 4000 mg, 4000 mg once daily, Day 28, 0 to 24 hours) was 763 min, the Tmax ([1]; 4000 mg, 4000 mg once daily, Day 28, 0 to 24 hours, read-out: tmax, median, free DGLA, baseline-corrected plasma) was 4 h and the half-life ([1]; 4000 mg, 4000 mg once daily, Day 28, 0 to 168 hours) was 2890 min. The Tmax ([1]; 4000 mg, 4000 mg once daily, Day 28, 0 to 168 hours, read-out: tmax, median, free DGLA, baseline-corrected plasma) was 4 h, the “increase of average concentration at steady state when dose doubled from 2000 to 4000 mg daily, free DGLA” value ([1]; in vivo) was 1.6 fold and the “increase of average concentration at steady state when dose doubled from 2000 to 4000 mg daily, total DGLA” value ([1]; in vivo) was 1.2 fold. For the same compound, the “free DGLA Peak Trough Fluctuation (PTF), mean” value ([1]; first value of both dose cohorts (2000 mg)) was ~430%, the “free DGLA Peak Trough Fluctuation (PTF), mean” value ([1]; second value of both dose cohorts (4000 mg)) was ~490% and the “mean free DGLA concentrations in skin blister fluid with a doubling in dose” value ([2]; Days 1, 8, 14 and 28) was “approximately doubled”. The “mean free DGLA concentrations in skin blister fluid, Day 28 vs Day 1” value ([2]; both 2000 and 4000 mg daily) was “about 3 fold”, the “mean concentrations of free DGLA, plasma vs skin blister fluid” value ([2]; same dose, Day 8 and Day 14 (but not Day 28)) was “somewhat similar in plasma and skin blister fluid” and the “mean concentrations of total DGLA, plasma vs skin blister fluid” value ([2]; same dose, after Day 1) was “much higher in plasma than in skin blister fluid”.
